This experiment relates to TEAD-dependent transcription. As to the kind of experiment: Inhibitor activity against TEAD-dependent transcription in a cell-based reporter assay (MSTO-211H+12XGTIIC luciferase). The note with it: Homo sapiens; MSTO-211H+12XGTIIC cell line, 24 hours compound incubation, luminescence normalized to cell viability fluorescence; read-out: MSTO-211H GMean IC50 (uM) Cell Assay Reporter Cell Variant: TEAD. An excerpt:
Determine Inhibitor Activity Against TEAD-Dependent Transcription in a Cell-Based Reporter Assay
The human mesothelioma cell line MSTO-211H was stably transfected with a pGL4.21 plasmid containing a synthetic promoter with 12 copies of the GTIIC TEAD response element that drives the expression of a luciferase reporter gene^1 using Lipofectamine transfection reagent (Thermno Fisher). Transfected cells were selected using puromycin and single cell clones expressing this construct (referred to as MSTO-211H+12XGTIIC) were generated by limiting dilution. MSTO-211H cells was characterized by genetic alterations in key components of the Hippo pathway^2, resulting in up-regulation of YAP/TEAD-mediated transcription. […] To evaluate TEAD inhibitors, the MSTO-211H+12XGTIIC cell line was seeded in a 96-well plate in 50 μL of culture media at 1×10^4 cells per well and incubated at 37° C. overnight. Serial dilutions of compounds (in total volume of 50 μL of culture media) were added to the cells and incubated at 37° C. for 24 hours. Each plate included cells treated with DMSO as high controls and cells treated with 20 μM of the reference compound K-975 (a known TEAD inhibitor)^3 as low controls. Cell viability was assayed by the addition of 25 μL of CellTiter-Fluor reagent (Promega) followed by a 30-minute incubation at 37° C. and quantification of the fluorescence signal (Ex400/Em505). Subsequently, luciferase expression was assayed by the addition of 25 μL of ONE-Glo reagent (Promega) followed by a 10-minute incubation at room temperature and quantification of the luminescence signal. The luminescence signal was normalized to the fluorescence signal to correct for any loss in cell viability over the 24-hour compound incubation period. The percentage of inhibition of normalized luminescence signal, indicative of compound-mediated inhibition of TEAD-dependent transcription, at individual compound concentrations relative to high and low controls was calculated. The data were analyzed by using nonlinear regression to generate IC50 values for individual compounds.
On the technique in general: Reporter assays use an easily measured gene product as a stand-in for the process of interest.
As for `CS(=O)(=O)c1cccc(N2CCc3c(Oc4ccc(C(F)(F)F)cc4)cccc3C2=O)c1` [O-0001, 2-(3-(methylsulfonyl)phenyl)-5-(4-(trifluoromethyl)phenoxy)-3,4-dihydroisoquinolin-1(2H)-one], the IC50 (commonly the concentration that inhibits the measured activity by half) is 0.001 to 10 µM.

On to `CS(=O)(=O)c1ccc(N2CCc3c(Oc4ccc(C(F)(F)F)cc4)cccc3C2=O)cc1` [O-0002, 2-(4-(methylsulfonyl)phenyl)-5-(4-(trifluoromethyl)phenoxy)-3,4-dihydroisoquinolin-1(2H)-one], for which the IC50 fell in the range of 0.001 to 10 µM.

Take `O=C1c2cccc(Oc3ccc(C(F)(F)F)cc3)c2CCN1c1cccc(C(F)(F)F)c1` [O-0003, 5-(4-(trifluoromethyl)phenoxy)-2-(3-(trifluoromethyl)phenyl)-3,4-dihydroisoquinolin-1(2H)-one]: the IC50 lay within 0.001 to 10 µM.

As for `O=C1c2cccc(Oc3ccc(C(F)(F)F)cc3)c2CCN1c1ccc(S(=O)(=O)C(F)(F)F)cc1` [O-0004, 5-(4-(trifluoromethyl)phenoxy)-2-(4-((trifluoromethyl)sulfonyl)phenyl)-3,4-dihydroisoquinolin-1(2H)-one], the IC50 was in the range of 0.001 to 10 µM.

As to `O=C1c2cccc(Oc3ccc(C(F)(F)F)cc3)c2CCN1c1cccc(S(=O)(=O)C(F)(F)F)c1` [O-0005, 5-(4-(trifluoromethyl)phenoxy)-2-(3-((trifluoromethyl)sulfonyl)phenyl)-3,4-dihydroisoquinolin-1(2H)-one], the IC50 is 0.001 to 10 µM.

For `CS(=O)(=O)C1CC(N2CCc3c(Oc4ccc(C(F)(F)F)cc4)cccc3C2=O)C1` (stereo not shown) [O-0006, 2-(3-(methylsulfonyl)cyclobutyl)-5-(4-(trifluoromethyl)phenoxy)-3,4-dihydroisoquinolin-1(2H)-one], the IC50 is 0.001 to 10 µM.

`CS(=O)(=O)c1nccc(N2CCc3c(Oc4ccc(C(F)(F)F)cc4)cccc3C2=O)n1` [O-0007, 2-(2-(methylsulfonyl)pyrimidin-4-yl)-5-(4-(trifluoromethyl)phenoxy)-3,4-dihydroisoquinolin-1(2H)-one]: the IC50 fell in the range of 0.001 to 10 µM.

For `Nc1ccc(N2CCc3c(Oc4ccc(C(F)(F)F)cc4)cccc3C2=O)cc1` [O-0010, 2-(4-aminophenyl)-5-(4-(trifluoromethyl)phenoxy)-3,4-dihydroisoquinolin-1(2H)-one], the IC50 lay in the range of 0.001 to 10 µM.

As for `Nc1cccc(N2CCc3c(Oc4ccc(C(F)(F)F)cc4)cccc3C2=O)c1` [O-0011, 2-(3-aminophenyl)-5-(4-(trifluoromethyl)phenoxy)-3,4-dihydroisoquinolin-1(2H)-one], the IC50 lay in the range of 0.001 to 10 µM.

On to `C=CC(=O)Nc1cccc(N2CCc3c(Oc4ccc(C(F)(F)F)cc4)cccc3C2=O)c1` [O-0012, N-(3-(1-oxo-5-(4-(trifluoromethyl)phenoxy)-3,4-dihydroisoquinolin-2(1H)-yl)phenyl)acrylamide], for which the IC50 was in the range of 0.001 to 10 µM.

Consider `C=CC(=O)Nc1ccc(N2CCc3c(Oc4ccc(C(F)(F)F)cc4)cccc3C2=O)cc1` [O-0013, N-(4-(1-oxo-5-(4-(trifluoromethyl)phenoxy)-3,4-dihydroisoquinolin-2(1H)-yl)phenyl)acrylamide], for which the IC50 was 0.001 to 10 µM.

As for `O=C1c2cccc(Oc3ccc(C(F)(F)F)cc3)c2CCN1c1ccc2nc(C(F)(F)F)sc2c1` [O-0014, 2-(2-(trifluoromethyl)benzo[d]thiazol-6-yl)-5-(4-(trifluoromethyl)phenoxy)-3,4-dihydroisoquinolin-1(2H)-one], the half-inhibitory concentration (IC50) is 0.001 to 10 µM.

Take `O=C1c2cccc(Oc3ccc(C(F)(F)F)cc3)c2CCN1c1ccc2nc(C(F)(F)F)[nH]c2c1` [O-0016, 2-(2-(trifluoromethyl)-1H-benzo[d]imidazol-6-yl)-5-(4-(trifluoromethyl)phenoxy)-3,4-dihydroisoquinolin-1(2H)-one]: the IC50 lay in the range of 0.001 to 10 µM.

For the molecule `N#Cc1nc2ccc(N3CCc4c(Oc5ccc(C(F)(F)F)cc5)cccc4C3=O)cc2o1` [O-0017, 6-(1-oxo-5-(4-(trifluoromethyl)phenoxy)-3,4-dihydroisoquinolin-2(1H)-yl)benzo[d]oxazole-2-carbonitrile], the IC50 is 0.001 to 10 µM.

On to `CS(=O)(=O)N1CCC(N2CCc3c(Oc4ccc(C(F)(F)F)cc4)cccc3C2=O)CC1` [O-0018, 2-(1-(methylsulfonyl)piperidin-4-yl)-5-(4-(trifluoromethyl)phenoxy)-3,4-dihydroisoquinolin-1(2H)-one], for which the IC50 is 0.001 to 10 µM.

On to `O=C1c2cccc(Oc3ccc(C(F)(F)F)cc3)c2CCN1c1ccnc(S(=O)(=O)C(F)(F)F)n1` [O-0019, 5-(4-(trifluoromethyl)phenoxy)-2-(2-((trifluoromethyl)sulfonyl)pyrimidin-4-yl)-3,4-dihydroisoquinolin-1(2H)-one], for which the IC50 fell in the range of 0.001 to 10 µM.

With `O=C1c2cccc(Oc3ccc(C(F)(F)F)cc3)c2CCN1C1CCN(S(=O)(=O)C(F)(F)F)CC1` [O-0020, 5-(4-(trifluoromethyl)phenoxy)-2-(1-((trifluoromethyl)sulfonyl)piperidin-4-yl)-3,4-dihydroisoquinolin-1(2H)-one], the IC50 lay in the range of 0.001 to 10 µM.

For `CS(=O)(=O)N1CCCC(N2CCc3c(Oc4ccc(C(F)(F)F)cc4)cccc3C2=O)C1` (stereo not shown) [O-0022, 2-(1-(methylsulfonyl)piperidin-3-yl)-5-(4-(trifluoromethyl)phenoxy)-3,4-dihydroisoquinolin-1(2H)-one], the IC50 lay within 0.001 to 10 µM.

Regarding `CS(=O)(=O)N1CCC(N2CCc3c(Oc4ccc(C(F)(F)F)cc4)cccc3C2=O)C1` (stereo not shown) [O-0027, 2-(1-(methylsulfonyl)pyrrolidin-3-yl)-5-(4-(trifluoromethyl)phenoxy)-3,4-dihydroisoquinolin-1(2H)-one], the IC50 was 0.001 to 10 µM.

Turning to `CS(=O)(=O)c1cccc(N2CCc3ccc(Oc4ccc(C(F)(F)F)cc4)cc3C2=O)n1` [O-0031, 2-(6-(methylsulfonyl)pyridin-2-yl)-7-(4-(trifluoromethyl)phenoxy)-3,4-dihydroisoquinolin-1(2H)-one], the IC50 was 0.001 to 10 µM.

Turning to `O=C1c2cc(Oc3ccc(C(F)(F)F)cc3)ccc2CCN1c1cccc(S(=O)(=O)C(F)(F)F)n1` [O-0032, 7-(4-(trifluoromethyl)phenoxy)-2-(6-((trifluoromethyl)sulfonyl)pyridin-2-yl)-3,4-dihydroisoquinolin-1(2H)-one], the IC50 is 0.001 to 10 µM.

`CS(=O)(=O)c1ccnc(N2CCc3ccc(Oc4ccc(C(F)(F)F)cc4)cc3C2=O)c1` [O-0033, 2-(4-(methylsulfonyl)pyridin-2-yl)-7-(4-(trifluoromethyl)phenoxy)-3,4-dihydroisoquinolin-1(2H)-one]: the 50% inhibitory concentration (IC50) was 0.001 to 10 µM.

In the case of `O=C1c2cc(Oc3ccc(C(F)(F)F)cc3)ccc2CCN1c1cccc(S(=O)(=O)C(F)(F)F)c1` [O-0035, 7-(4-(trifluoromethyl)phenoxy)-2-(3-((trifluoromethyl)sulfonyl)phenyl)-3,4-dihydroisoquinolin-1(2H)-one], the IC50 is 0.001 to 10 µM.

As for `CS(=O)(=O)c1nccc(N2CCc3ccc(Oc4ccc(C(F)(F)F)cc4)cc3C2=O)n1` [O-0036, 2-(2-(methylsulfonyl)pyrimidin-4-yl)-7-(4-(trifluoromethyl)phenoxy)-3,4-dihydroisoquinolin-1(2H)-one], the IC50 lay in the range of 0.001 to 10 µM.

`O=C1c2cc(Oc3ccc(C(F)(F)F)cc3)ccc2CCN1c1cccc(-c2nccs2)c1` [O-0038, 2-(3-(thiazol-2-yl)phenyl)-7-(4-(trifluoromethyl)phenoxy)-3,4-dihydroisoquinolin-1(2H)-one]: the IC50 fell in the range of 0.001 to 10 µM.

The values are drawn from patent US20250382279A1, “COMPOUNDS AND METHODS FOR YAP/TEAD MODULATION AND INDICATIONS THEREFOR” (OPNA BIO SA, priority 2023, published 2025).
